The values below come from patent publication US11618746B2, “Inhibitors of APOL1 and methods of using same” (Vertex Pharmaceuticals Incorporated, priority 2018, dated 2023).

What is called IC50 is the concentration needed to halve the response being measured. A lower IC50 goes with greater potency in that assay.

This experiment concerns the target T1, G1 APOL1 (Homo sapiens, UniProt O14791, I384M/S342G).
T1 construct: expressed in transfected cells
T1 sequence (O14791 28-398 S342G/I384M): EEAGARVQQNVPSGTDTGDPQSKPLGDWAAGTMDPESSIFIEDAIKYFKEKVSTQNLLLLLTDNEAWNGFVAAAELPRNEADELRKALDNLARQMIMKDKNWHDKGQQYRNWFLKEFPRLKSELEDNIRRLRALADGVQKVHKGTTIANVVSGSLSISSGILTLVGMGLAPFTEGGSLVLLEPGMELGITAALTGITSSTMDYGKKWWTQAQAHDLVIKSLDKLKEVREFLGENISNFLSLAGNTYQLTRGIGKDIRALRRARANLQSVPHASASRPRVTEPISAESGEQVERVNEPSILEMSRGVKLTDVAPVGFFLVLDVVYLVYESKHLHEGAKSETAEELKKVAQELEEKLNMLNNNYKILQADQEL
The experiment is described as follows: Acute APOL1 Thallium Assay with inducible stable clones of HEK 293 cells. It counts as cell-based. Conditions: HEK T-Rex tetracycline-inducible cells expressing G1 APOL1 (clone G1 DC3.25); inhibition of thallium flux rate. From the text: Acute APOL1 Thallium Assay with Inducible Stable Clones of HEK 293 Cells
Apolipoprotein L1 (APOL1) proteins form potassium-permeable cation pores in the plasma membrane. APOL1 risk variants (G1 and G2) induce greater potassium flux than G0 in HEK293 cells. This assay exploits the permeability of thallium (T1+) through ligand-gated potassium channels. The dye produces a bright fluorescent signal upon binding to T1+ conducted through potassium channels. The intensity of the T1+ signal is proportional to the number of potassium channels in the open state. Therefore, it provides a functional indication of the potassium channel activities. During the initial dye-loading step, the T1+ indicator dye as an acetoxymethyl (AM) ester enters the cells through passive diffusion. Cytoplasm esterases cleave the AM ester and relieve its active thallium-sensitive form. The cells are then stimulated with T1+. The increase of fluorescence in the assay represents the influx of T1+ into the cell specifically through the potassium channel (i.e. through APOL1 pores), providing a functional measurement of potassium channel/pore activity. The Thallium assay is conducted with cells expressing G1 APOL1.
APOL1 Cell Line (HEK T-Rex Stable Inducible Cell Line) • HEK T-Rex System • Tetracycline (Tet) inducible mammalian expression system. • Stably express the Tet repressor to regulate transcription. • Expression under the full-length CMV promoter. • APOL1 stable inducible cell line Clone used: G1 DC3.25
Tissue Culture Media • Cell Culture Medium • DMEM +10% FBS +P/S +5 μg/mL blasticidin+1 μg/mL puromycin. • 500 mL DMEM +55 mL FBS +5 mL P/S +280 μL blasticidin S HCl (10 mg/mL)+56 μL puromycin (10 mg/mL). • Cell Assay Medium • DMEM with 2% FBS+pen strep.
Instruments and Equipment • Nuaire cell culture hood, Cat. No. 540-600 • 37° C./5% CO2 incubator link to robotic arm, Liconic: STX110 • Molecular Devices FLIPR^Tetra High throughput cellular screening system, Cat. No. FT0324, Molecular Devices • ThermoFisher MultiDrop 384, Cat. No. 5840300 • Biotek Microfill, Cat. No. ASF1000A-4145 • BioRad TC10 cell counter, Cat. No. 145-0010 Assay Procedures
Cells Scaled Up from Frozen Vials • APOL1 G1 3.25 (HEK293 T-Rex) frozen vials: 5 million cells per vial • Step 1, Day 1: Defrost frozen vial into T-225. • Step 2, Day 5: (when 85% confluent): Split one T-225 at 3×10^6 cells per flask. • Step 3, Day 8: Splits cells to set up for the assay plates as described below.
T-Rex APOL1 HEK cells are split twice per week to keep the confluence state below 85% of the culture flask surface area. Cells can be kept until passage 25. • Cell Culture Medium • DMEM high glucose +10% FBS, +P/S, +5 μg/mL blasticidin, +1 μg/mL puromycin. • 500 mL DMEM, +55 mL FBS, +5 mL P/S, +280 μL blasicidin 10 mg/mL, +56 μL Puromycin 10 mg/mL. • Assay Media • Opti-MEM reduced serum medium from Invitrogen.
Preparation of Cell Assay Plates • Culture medium is removed from the x cm^2 T-flask by aspiration. • The cell monolayer is rinsed with PBS 1× at room temperature. PBS is removed by aspiration. • Cells are trypsinized using Trypsin. • The flasks are incubated at room temperature for 2-3 minutes. • Complete DMEM medium is then added. Cell suspension is then transferred to a 50 mL Falcon polypropylene tube. • Cells are then counted using a Biorad TC10 cell counter and the required amount of cells are centrifuged at 1200 RPM for 5 minutes. Required amount is 1.3×10^6 cells/mL APOL1 T-Rex HEK cells. • The pellet is suspended in the assay medium. • Using the MultiDrop, add 20 μL to each well (corresponds to 26000 cells total per well) of a 384-well black, transparent, flat bottom Poly-D coated plate. • Tetracycline as prepared in the following section is added to the cells before plating to induce APOL1 expression. • Plates are left at room temperature for 20 to 30 minutes before incubation at 37° C. and 5% CO2. […]
In turn, `COc1cccc2c(CCC(=O)N[C@H]3CCNC3=O)c(-c3ccc(F)cc3)[nH]c12` [Compound 77] yielded a half-maximal inhibitory concentration (IC50) of over 1000 nM.
`O=C(CCc1c(-c2ccc(F)cc2)[nH]c2c(F)c(F)c(F)cc12)N[C@@H]1C(=O)NC[C@H]1O` [Compound 79] gave a 50% inhibitory concentration (IC50) of under 250 nM.
The molecule `O=C(CCc1c(-c2ccc(F)cc2)[nH]c2cc(F)c(F)cc12)N[C@@H]1C(=O)NC[C@H]1O` [Compound 81] yielded an IC50 of under 250 nM.
As to `Cc1c(F)ccc2c(CCC(=O)N[C@@H]3C(=O)NC[C@H]3O)c(-c3ccc(F)cc3)[nH]c12` [Compound 83], the IC50 is under 250 nM.
In turn, `Cc1c(F)ccc2c(CCC(=O)N[C@@H]3C(=O)NC[C@H]3O)c(-c3ccccc3)[nH]c12` [Compound 84] displayed an IC50 of under 250 nM.
`C[C@@H](Cc1c(-c2ccc(F)cc2)[nH]c2c(F)cc(F)cc12)C(=O)N[C@H]1CCNC1=O` [Compound 90, (2S)-3-[5,7-difluoro-2-(4-fluorophenyl)-1H-indol-3-yl]-2-methyl-N-[(3S)-2-oxopyrrolidin-3-yl]propanamide] returned an IC50 of over 1000 nM.
The result for `C[C@@H](Cc1c(-c2ccc(F)cc2)[nH]c2c(F)cc(F)cc12)C(=O)N[C@@H]1C(=O)NC[C@H]1O` [Compound 91, (2S)-3-[5,7-difluoro-2-(4-fluorophenyl)-1H-indol-3-yl]-N-[(3S,4R)-4-hydroxy-2-oxo-pyrrolidin-3-yl]-2-methyl-propanamide] reads 250 to 1000 nM; that for `O=C(N[C@@H]1C(=O)NC[C@H]1O)[C@H](O)Cc1c(-c2ccc(F)cc2)[nH]c2c(F)cc(F)cc12` [Compound 92, (2R)-3-[5,7-difluoro-2-(4-fluorophenyl)-1H-indol-3-yl]-2-hydroxy-N-[(3S,4R)-4-hydroxy-2-oxo-pyrrolidin-3-yl]propanamide], over 1000 nM; that for `O=C(N[C@H]1CCNC1=O)[C@H](O)Cc1c(-c2ccc(F)cc2)[nH]c2c(F)cc(F)cc12` [Compound 93, (2R)-3-[5,7-difluoro-2-(4-fluorophenyl)-1H-indol-3-yl]-2-hydroxy-N-[(3S)-2-oxopyrrolidin-3-yl]propanamide], over 1000 nM.
For the molecule `O=C1NC[C@@H](O)[C@@H]1NC(=O)[C@@H](O)Cc1c(-c2ccc(F)cc2)[nH]c2c(F)cc(F)cc12` [Compound 94, (2S)-3-[5,7-difluoro-2-(4-fluorophenyl)-1H-indol-3-yl]-2-hydroxy-N-[(3S,4R)-4-hydroxy-2-oxo-pyrrolidin-3-yl]propanamide], the IC50 is over 1000 nM.
On to `O=C(CCc1c(-c2ccc(F)cc2)[nH]c2c(C(F)F)cc(F)cc12)N[C@@H]1C(=O)NC[C@H]1O` [Compound 100, 3-[7-(difluoromethyl)-5-fluoro-2-(4-fluorophenyl)-1H-indol-3-yl]-N-[(3S,4R)-4-hydroxy-2-oxo-pyrrolidin-3-yl]propanamide], for which the IC50 is under 250 nM.
For `O=C(CCc1c(-c2ccc(F)cc2)[nH]c2c(F)cc(OC(F)F)cc12)N[C@@H]1C(=O)NC[C@H]1O` [Compound 106], the concentration for half-maximal inhibition (IC50) was under 250 nM.
Then `O=C(CCc1c(-c2ccc(F)cc2)[nH]c2c(C(F)(F)F)cccc12)N[C@@H]1C(=O)NC[C@H]1O` [Compound 111, 3-[2-(4-fluorophenyl)-7-(trifluoromethyl)-1H-indol-3-yl]-N-[(3S,4R)-4-hydroxy-2-oxo-pyrrolidin-3-yl]propanamide], with under 250 nM; and `O=C(CCc1c(-c2ccc(Cl)cc2)[nH]c2c(Cl)cccc12)N[C@@H]1C(=O)NC[C@H]1O` [Compound 113, 3-[7-chloro-2-(4-chlorophenyl)-1H-indol-3-yl]-N-[(3S,4R)-4-hydroxy-2-oxo-pyrrolidin-3-yl]propanamide], with under 250 nM; and `O=C(CCc1c(-c2ccc(OC(F)F)cc2)[nH]c2ccccc12)N[C@@H]1C(=O)NC[C@H]1O` [Compound 117], with under 250 nM.
Then `Cc1cc(F)ccc1-c1[nH]c2ccccc2c1CCC(=O)N[C@@H]1C(=O)NC[C@H]1O` [Compound 119], with 250 to 1000 nM; and `O=C(CSc1c(-c2ccc(F)cc2)[nH]c2ccccc12)N[C@@H]1C(=O)NC[C@H]1O` [Compound 130, 2-[[2-(4-fluorophenyl)-1H-indol-3-yl]sulfanyl]-N-[(3S,4R)-4-hydroxy-2-oxo-pyrrolidin-3-yl]acetamide], with under 250 nM; and `O=C(CCc1c(-c2ccccc2)[nH]c2c(C(F)(F)F)cc(F)cc12)N[C@@H]1C(=O)NC[C@H]1O` [Compound 132, 3-[5-fluoro-2-phenyl-7-(trifluoromethyl)-1H-indol-3-yl]-N-[(3S,4R)-4-hydroxy-2-oxo-pyrrolidin-3-yl]propanamide], with under 250 nM.
As for `O=C(CCc1c(-c2ccc(F)cc2)[nH]c2ccccc12)N[C@H]1C(=O)NC[C@H]1O` [Compound 133, 3-[2-(4-fluorophenyl)-1H-indol-3-yl]-N-[(3R,4R)-4-hydroxy-2-oxo-pyrrolidin-3-yl]propanamide], the IC50 was in the range of 250 to 1000 nM.
In turn, `O=C(CCc1c(-c2ccc(F)cc2)[nH]c2ccccc12)N[C@H]1C(=O)NC[C@@H]1O` [Compound 134, 3-[2-(4-fluorophenyl)-1H-indol-3-yl]-N-[(3R,4S)-4-hydroxy-2-oxo-pyrrolidin-3-yl]propanamide] came in with an IC50 of over 1000 nM.
The molecule `O=C(CCc1c(-c2ccc(F)cc2)[nH]c2ccccc12)N[C@@H]1C(=O)NC[C@@H]1O` [Compound 135, 3-[2-(4-fluorophenyl)-1H-indol-3-yl]-N-[(3S,4S)-4-hydroxy-2-oxo-pyrrolidin-3-yl]propanamide] registered an IC50 of over 1000 nM.
